Reference: paper PMC6965176, “Targeting Forward and Reverse EphB4/EFNB2 Signaling by a Peptide with Dual Functions” (Scientific Reports, 2020)
Non-standard residues stand in square brackets, D forms with d. No end group written: not given here.

Columns and labels:
EphB4 and Crk1 (MAPK14) = experiment: EphB4 and Crk1 phosphorylation in A2780cp20 cells (IP/immunoblot); type: cell-based, human; details: 50 nM (BIDEN-AP equivalent), 24 h after 16 h serum-free (Fig. S7A)
Excerpt: Next, we determined the phosphorylation of EphB4 and its downstream adaptor protein Crk1 (MAPK14) in lysates from human A2780cp20 ovarian cancer cells by immunoprecipitation with anti-EphB4 and anti-Crk1 antibodies followed by immunoblotting with phospho-specific antibodies. […] In comparison, Alexa647-labeled antagonist TNYL-RAW was excluded.
Figure 2 BIDEN-AP acts as an EphB4 agonist. (A) BIDEN-AP induced phosphorylation of EphB4 and the associated MAPK14 (Crk1). […] The uncropped blots are presented in Supplemental Figure 11. (B) BIDEN-AP inhibited A2780cp20 cell invasion compared to untreated controls (CTL). A modified Boyden transwell chamber coated with Matrigel was used. Representative data from three independent experiments using A2780cp20 cells are presented. Each experiment was repeated in triplicate. Data are shown as mean ± SD. ***p < 0.001 by unpaired, two-sided Student t-test. […]
calculated as Koff/Kon. […]
The capacity of BIDEN-AP to inhibit the binding of EFNB2 to EphB4 was assessed in a competitive binding assay. […] After each injection, the signal from the control flow cell was subtracted and the relative amount of EphB4 bound to EFNB2-Fc was recorded as the net response over the pre-injection baseline level. […]
The protein concentrations were determined by using a BCA Protein Assay Reagent kit (Pierce Biotechnology, Rockford, IL). […]

[1] = system: orthotopic A2780cp20-Luc ovarian tumors; experiment: Orthotopic A2780cp20-Luc ovarian cancer model
Description: (A) Schema for in vivo orthotopic A2789cp20-Luc model and treatment. Female nude mice were intraperitoneally inoculated with A2789cp20-Luc tumor cells. Beginning on day 7 after inoculation, each mouse received 10 intraperitoneal injections of BIDEN-AP or CCPM-BIDEN-AP (bold arrows) at a dose 13 mg/kg/injection every other day for a total of 10 doses. Tumor growth was monitored by bioluminescence imaging (IVIS). (B,C) Representative bioluminescence images on day 28 after tumor cell inoculation (B) and corresponding quantification of signal intensity (C) of mice bearing orthotopic A2780cp20-Luc tumors (n = 4). (D,E) Tumor weight (D) and number of tumor nodules (E) per treatment group (n = 8). (F) Images of tumor nodules from each treatment group. Data are expressed as mean ± SD. *p < 0.05, **p < 0.01, ****p < 0.0001 by Student t-test. CTL, untreated controls.
Female athymic nude mice (NCr-nu) were obtained from Harlan Laboratories (Indianapolis, IN) at age 4 to 6 weeks and kept under sterile conditions. For all therapeutic experiments, groups of the mice were inoculated intraperitoneally with A2780cp20-Luc cells (1×10^6 cells/mouse). The mice were treated with BIDEN-AP or CCPM-BIDEN-AP at a dose of 13 mg equivalent drug/kg per injection for a total of 10 doses every other day starting on day 7 after tumor cell inoculation. Untreated mice were used as a control. On day 31, all mice were euthanized and necropsied, and their tumors were harvested. Tumor weight and number and location of tumor nodules were recorded. Tumor tissue was fixed in formalin for paraffin embedding, frozen in optimal cutting temperature medium for frozen slide preparation, or snap-frozen for lysate preparation.
On day 7, day 14, day 21, and day 28 after tumor inoculation, mice received a tail vein injection of D-luciferin (4 mg/kg) and their tumor burden was assessed by luciferase activity using the Xenogen IVIS-200 imaging system (Perkin Elmer, Shelton, CT). The bioluminescence imaging signal generated in mice was quantified using Living Image V.2.11 software and IGOR image analysis software (V.4.02 A; WaveMetrics, Portland, OR). The region of interest was manually selected, and the signal intensity was expressed in terms of the number of photons/s/cm^2.
incubated overnight at 4°C. After washing, the slides were incubated with Alexa488-conjugated goat anti-rabbit secondary antibody for 60 min. Slides were subjected to recombinant terminal
deoxynucleotidyl transferase (rTdT)–mediated dUTP nick-end labeling (TUNEL) by using the
DeadEnd Fluorometric TUNEL System assay kit (Promega) after CD31 staining by immersing
slides in 4% formaldehyde in PBS for 15 min. A 20 µg/mL proteinase K solution (Promega) was
added to each slide (100 µL per slide), and the slides were incubated at room temperature for 8-
10 min. Slides were washed twice with PBS, 100 µL equilibration buffer (Promega) was added to
each, and the slides were again incubated for 5-10 min. The slides were then labeled by adding
50 µL of fluorescein-12-dUTP as a substrate, and the rTdT was added. Each slide was covered
with a plastic coverslip to ensure even distribution of the labeling solution and incubated for 60
min at 37°C in a humidified chamber. The reaction was stopped by immersing slides in 2x SSC
solution (87.7g NaCl, 44.1g sodium citrate, pH 7.0, in 500 mL) for 15 min. After washing with PBS,

[2] = Transmission electron microscopy particle size; type: physicochemical; details: transmission electron microscopy (Fig. 3C)
Description: examined with a JEM 1010 transmission electron microscope (JEOL USA, Inc., Peabody, MA) at an accelerating voltage of 80 kV. Digital images were obtained using the AMT Imaging System (Advanced Microscopy Techniques Corp., Danvers, MA).
Surface plasmon resonance (SPR) binding and competition assays. A stock solution of EphB4 in PBS (100 µg/mL) was diluted to 25 µg/mL with 10 mM sodium acetate buffer (pH 4.5) and immobilized to CM5 sensor chips using the amine coupling reaction according to manufacturer-provided procedures (BIACore). Briefly, the surfaces of the chips in flow cells (FC)- 1 and FC-2 were activated by exposing chips to a mixture of 200 mM N-ethyl-N’- dimethylaminopropyl carbodiimide and 50 mM N-hydroxysuccinimide for 7 min. FC-1 was used as a reference surface and was directly deactivated by injecting 1 M ethanolamine at pH 8.5 for 7 min. […]
Binding assays were performed in duplicate at 25°C in HBSEP running buffer. […] Thus, all analyzed samples, including a sample of the running buffer, were additionally injected onto an uncoated reference surface. The association rate (Kon) and dissociation rate (Koff) were calculated by fitting binding chromatogram data using the BIACore evaluation software with a 1:1 Langmuir binding model. […]

Q: Which results are given for “CCPM-BIDEN-AP: nanoconjugate of BIDEN-AP with core-crosslinked polymeric micelles (CCPM) (TN[dY]LFSPNGPIARAW; also: conjugated to core-crosslinked polymeric micelles (CCPM))”?
A: EphB4 and Crk1 phosphorylation in vitro (agonist activity) (EphB4 and Crk1 (MAPK14)): potent agonist activity; bioluminescence signal intensity of tumors ([1]; day 28 after inoculation, 13 mg/kg/injection i.p. every other day, 10 doses from day 7, n = 4 (Fig. 5A-C)): significantly reduced the bioluminescence signal intensity; metastatic nodules, comparison of the two agents ([1]; day 31, 13 mg/kg/injection i.p., 10 doses (Fig. 5E,F)): reduced metastatic nodules to a greater extent than BIDEN-AP; tumor growth in the peritoneum (tumor weight and number of metastatic nodules) versus controls ([1]; day 31 after inoculation, 13 mg/kg/injection i.p., 10 doses, n = 8 (Fig. 5D)): significantly reduced tumor growth in the peritoneum; apoptotic cell death in CD31+ endothelial vasculature within tumor stroma ([1]; excised A2780cp20 tumors, CD31/TUNEL co-staining, versus untreated control (Fig. 6A-C)): induced apoptotic cell death; angiogenesis in tumors (microvessel density) ([1]; excised A2780cp20 tumors, CD31 staining (Fig. 6A-C)): suppressed angiogenesis in tumors; tumor cell proliferation (Ki67-positive cells) ([1]; excised A2780cp20 tumors, Ki67 IHC (Fig. 6D,E)): significantly reduced tumor cell proliferation; EphB4 and Crk1 phosphorylation in vivo in tumors ([1]; orthotopic A2780cp20 tumors of treated mice, IP/immunoblot (Fig. S7B)): induce EphB4 and Crk1 phosphorylation; mean diameter [2]: 24 ± 3 nm
